Experimental data from patent US10501748B2, “Methods and compositions for integration of an exogenous sequence within the genome of plants” (Dow AgroSciences LLC, priority 2013, dated 2019).

Columns and labels:
[1] = test system: cv. Clearfield Janz (S653/S653) and (N653/N653) plants; experiment: basal tolerance/resistance to IMAZAMOX at the plant regeneration stage, modified approach (plant growth); format: in vivo, Triticum aestivum; conditions: 3 weeks
Protocol: The basal tolerance of the cv. Clearfield Janz (S653/S653) genotype and basal resistance of the cv. Clearfield Janz (N653/N653) genotype to IMAZAMOX® at the plant regeneration stage was determined using a modified approach, as cv. […] Seed for each cv. Clearfield Janz genotype was germinated using the aseptic approach described above for producing wheat mesophyll protoplasts. The germinated seedlings were multiplied in vitro by sub-culturing on multiplication medium. Following multiplication, plants for each genotype were transferred to 10 cm PETRI™ dishes containing plant growth medium (MS+10 μM BA+0.8% agar) supplemented with 0, 100, 300, 600, 900, 1200, 1500 and 3000 nM IMAZAMOX®, respectively. Ten plants were placed in each PETRI™ dish. A total of 30 plants per genotype were tested for basal response at each IMAZAMOX® concentration. After incubation for 3 weeks at 24° C. under a 16/8 (light/dark) hour photoperiod in a growth room, the growth response was recorded. […] This response was similar to that observed for the cv. Bobwhite MPB26RH (S653/S653) genotype. In contrast, plant growth for the cv.

[2] = test system: cv. Clearfield Janz (S653/S653) and (N653/N653) plants; experiment: basal tolerance/resistance to IMAZAMOX at the plant rooting stage, modified approach; format: in vivo, Triticum aestivum; conditions: 2 weeks
Protocol: The basal tolerance of the cv. Clearfield Janz (S653/S653) genotype and basal resistance of the cv. Clearfield Janz (N653/N653) genotype to IMAZAMOX® at the plant rooting stage was determined using a modified approach, as cv. […] Seed for each cv. Clearfield Janz genotype was germinated using the aseptic approach described above for producing wheat mesophyll protoplasts. The germinated seedlings were multiplied in vitro by sub-culturing on multiplication medium. Following multiplication, plants for each genotype were transferred to 10 cm PETRI™ dishes containing plant rooting medium (½ MS, 0.5 mg/L NAA, 0.8% agar) supplemented with 0, 50, 100, 200 and 250 nM IMAZAMOX®, respectively. Three plants were placed in each PETRI™ dish. A total of 6 plants per genotype were tested for basal response at each IMAZAMOX® concentration. After incubation for 2 weeks at 24° C. under a 16/8 (light/dark) hour photoperiod in a growth room, the root formation response was recorded.
Clearfield Janz (N653/N653) genotype was restricted, compared to untreated samples, at 250 nM IMAZAMOX®. […] Clearfield Janz (S653/S653) genotype at all concentrations of IMAZAMOX® tested, compared to untreated samples.

## COCc1cnc(C2=NC(C)(C(C)C)C(=O)N2)c(C(=O)O)c1 (stereo not shown) [IMAZAMOX]
[1]; cv. Clearfield Janz (N653/N653)
  concentration above which plant growth was strongly suppressed: exceeded 2,000 nM
[1]; cv. Clearfield Janz (S653/S653), medium containing at least 200 nM
  plant growth compared to untreated samples: severely reduced
[2]; cv. Clearfield Janz (N653/N653), 250 nM
  root formation compared to untreated samples: restricted
[2]; cv. Clearfield Janz (S653/S653), all concentrations tested (50-250 nM)
  root formation compared to untreated samples: severely restricted
